# Assay results: patent US20220152048A1, “Botanical Extracts and Compounds from Castanea Plants and Methods of Use” (Emory University, priority 2019, published 2022)
# What was measured:
# [1] = test system: Staphylococcus aureus reporter strains of agr (types I-IV: AH1677, AH430, AH1747, AH1872); assay: Quorum quenching assay with agr P3-YFP reporter strains (fluorescence); type: cell-based; settings: read-out: IC50 for inhibition of fluorescence across agr reporter strains
# Text: Hydroperoxy-cycloartanes were isolated from the methanolic extract of the leaves of Castanea sativa, a substantial, long-lived deciduous tree that produces an edible seed, the chestnut. 224C-F2c-PF42-SF6 is a mixture of a cycloartane with a hydroperoxy group at the terminus of its alkyl chain and a carboxylic acid and methyl group replacing the gem-dimethyl group (1a) and a cycloartane with a terminal alkene and carboxylic acid in the S configuration at C24 (1b). 224C-F2c-PF42-SF7 is a cycloartane with a terminal alkene and carboxylic acid in the R configuration at C24 (2). […] The compounds 2 and SF6 were evaluated for the ability to inhibit fluorescence of Staphylococcus aureus reporter strains of agr, the main gene regulating quorum sensing. Additionally, 2 and SF6 were evaluated for cytotoxicity against human immortalized keratinocytes (HaCaT).
# After eluting from the column, 224C-F2 was split into parts a-d. […] A screen against S. aureus reporter strains of AIP-induced agr:P3 activation representing all four agr subtypes functioned as a preliminary readout of quorum sensing inhibition and the bioassay which guided fractionation. […]
# [2] = test system: Staphylococcus aureus reporter strain of agr I expression (AH1677); assay: agr I reporter strain AH1677 dose range (FIG. 3); type: cell-based; settings: strain AH1677, fluorescence (FLD) of the gene reporter
# Experimental: Strain AH1677 was treated with a range of doses of SF6, SF7, and a combination of the two. OD refers to growth, while FLD refers to fluorescence of the gene reporter. […] The combined effects of SF6 and SF7 are additive; a dose 4 μg/mL SF6+4 μg/mL SF7 has the same effect as an 8 μg/mL dose of either.
# (§1) Fractions were tested for quorum quenching activity against all four agr types agr P3-YFP reporter strains AH1677 (type I), AH430 (type II), AH1747 (type III), and AH1872 (type IV). Sample stock solutions were dissolved in DMSO at a concentration of 2 mg/mL. Overnight cultures of reporter strains that were grown in TSB supplemented with chloramphenicol (Cam) were inoculated into fresh TSB containing Cam to achieve a working culture OD of 0.0006. Working culture was added to 96-well microtiter plates (Costar 3603) as was sample in order to achieve a final well volume of 200 μL. Mock vehicle (DMSO) treatments were included for each reporter strain. Microtiter plates were incubated at 37° C. with shaking (1250 rpm) in a Stuart SI505 incubator (Bibby Scientific, Burlington, N.J.) with a humidified chamber. Fluorescence (top reading, 493 nm excitation, 535 nm emission, gain 60) and optical density (OD) readings at 600 nm were recorded at 18 h using a Tecan Systems (San Jose, Calif.) Infinite M200 plate reader.
# S. aureus = assay: Growth (optical density) of S. aureus; type: cell-based, Staphylococcus aureus; settings: at the IC50 concentration of 8 μg/mL
# Experimental: as §1
structure (smiles),measurement,setting,value
C=C(C)[C@H](CC[C@H](C)[C@@H]1CC[C@]2(C)[C@H]3[C@H](O)C[C@@H]4[C@@](C)(C(=O)O)[C@H](O)CC[C@]45C[C@]35CC[C@@]12C)OO [Compound 2],IC50,[1],8 µg/mL
same,activity in agr I reporter strain as compared to parent fraction and positive control 224C-F2c,[2],slightly reduced
same,growth inhibitory effects on S. aureus,S. aureus,no growth inhibitory effects
